Each structure is given as a SMILES string. Several values for one entry are separate records, joined by “and”; a condition that tells them apart may be missing. Equal values may be shown once.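 Values below derive from 48-hour exposures of cells grown in 96-well plates, with endpoints linearly interpolated between the two concentrations bracketing the appropriate inhibition level. The concentration for 50% growth inhibition is given as GI50. TGI: total growth inhibition.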 Where only a bound is given, the exact number is not on record here.

Some test systems named below: 786-0 renal; COLO 205 colon; K-562 leukemia; MALME-3M melanoma; MDA-MB-231 breast; OVCAR-3 ovarian; RPMI-8226 leukemia; SF-268 CNS; SK-MEL-2 melanoma; SNB-75 CNS.
What all share (test): growth of human tumour cells (NCI), 48 h

Consider `c1cncc(CNc2ncn[nH]2)c1`, for which the TGI with 786-0 renal, in the assay with COLO 205 colon, in the assay on K-562 leukemia, with MALME-3M melanoma, in the assay with MDA-MB-231 breast and with OVCAR-3 ovarian was over 100 µM throughout. Further, the TGI in the assay on RPMI-8226 leukemia, in the assay with SF-268 CNS, in the assay with SK-MEL-2 melanoma and in the assay on SNB-75 CNS was over 100 µM each time.

For `O=[N+]([O-])c1ccc(N=Nc2c(O)[nH]c3ccccc23)cc1`, the TGI with 786-0 renal was 61.7 µM; in the assay with COLO 205 colon, over 100 µM; with K-562 leukemia it was over 84.6 µM; in the assay with MALME-3M melanoma it was 45.2 µM; in the assay with MDA-MB-231 breast it was over 58.9 µM; in the assay with OVCAR-3 ovarian, 35.2 µM. Moreover, the TGI was over 100 µM in the assay on RPMI-8226 leukemia, 58.7 µM with SF-268 CNS, over 100 µM in the assay with SK-MEL-2 melanoma and 42.6 µM with SNB-75 CNS.

With `COC(=O)[C@]12CC=C3O[C@@H]4OC5(CCCCC5)O[C@@H]4[C@H]3C1C(=O)C=CC2=O` (some centres not stated), the TGI in the assay with 786-0 renal came out at 30.8 µM; in the assay with COLO 205 colon it was 30.4 µM; in the assay with K-562 leukemia it was 65 µM; in the assay on MALME-3M melanoma, 34.2 µM; with MDA-MB-231 breast it was 32.8 µM; in the assay on OVCAR-3 ovarian, 28.7 µM. Also, the TGI is 21.6 µM with RPMI-8226 leukemia, 30 µM with SF-268 CNS, 48.4 µM with SK-MEL-2 melanoma and 34.7 µM in the assay with SNB-75 CNS.

On to `Cc1cc2nc3c4cccc(O)c4n(CCN(C)C)c3nc2cc1C`, for which the GI50 with 786-0 renal was 3.88 µM; in the assay with COLO 205 colon, 3.89 µM; with K-562 leukemia, 1.24 µM; in the assay with MALME-3M melanoma it was 1.64 µM; with MDA-MB-231 breast, 2.04 µM; in the assay on OVCAR-3 ovarian, 3.11 µM. For the same compound, the GI50 was 1.36 µM in the assay with RPMI-8226 leukemia, 4.23 µM in the assay on SF-268 CNS, 1.93 µM in the assay on SK-MEL-2 melanoma and 1.18 µM in the assay on SNB-75 CNS. The TGI was determined as 21.1 µM in the assay on 786-0 renal; 19.4 µM in the assay on COLO 205 colon; 4.77 µM in the assay on K-562 leukemia; 3.42 µM in the assay with MALME-3M melanoma; 5.63 µM with MDA-MB-231 breast; 15.7 µM with OVCAR-3 ovarian. Further, the TGI was determined as 4.62 µM in the assay on RPMI-8226 leukemia, 27.6 µM with SF-268 CNS, 4.22 µM with SK-MEL-2 melanoma and 11.1 µM in the assay on SNB-75 CNS.

`Cc1cn2c(=O)n(c1=O)Cc1ccccc1C2`: the GI50 in the assay with 786-0 renal is 68.7 µM; in the assay on COLO 205 colon, 1.04 µM; with K-562 leukemia it was over 100 µM; in the assay with MALME-3M melanoma, over 100 µM; in the assay with MDA-MB-231 breast it was 5.84 µM; in the assay on OVCAR-3 ovarian it was over 100 µM. In addition, the GI50 with RPMI-8226 leukemia was 28.3 µM; with SF-268 CNS it was 38.6 µM; in the assay with SK-MEL-2 melanoma, over 100 µM; with SNB-75 CNS, 85.9 µM. Further, the TGI in the assay with 786-0 renal is over 100 µM; in the assay on COLO 205 colon it was 31.9 µM; in the assay on K-562 leukemia, over 100 µM; in the assay on MALME-3M melanoma, over 100 µM; in the assay on MDA-MB-231 breast, over 100 µM; in the assay with OVCAR-3 ovarian, over 100 µM. In addition, the TGI with RPMI-8226 leukemia, in the assay on SF-268 CNS, in the assay on SK-MEL-2 melanoma and with SNB-75 CNS was over 100 µM in each case.

Take `Oc1ccc(CN(Cc2ccc(C(F)(F)F)cc2)Cc2ccc(O)c3ncccc23)c2cccnc12`: the GI50 is 0.0394 µM with 786-0 renal; 0.091 µM in the assay on COLO 205 colon; 0.0224 µM in the assay on K-562 leukemia; 0.0461 µM in the assay on MALME-3M melanoma; 0.0566 µM with MDA-MB-231 breast; 0.0319 µM with OVCAR-3 ovarian. In addition, the GI50 in the assay on RPMI-8226 leukemia is 0.0278 µM; in the assay on SF-268 CNS it was 0.0487 µM; in the assay on SK-MEL-2 melanoma, 0.0232 µM; in the assay with SNB-75 CNS, 0.0172 µM. Besides, the TGI in the assay on 786-0 renal was 5.21 µM; in the assay on COLO 205 colon it was over 100 µM; with K-562 leukemia, over 100 µM; in the assay with MALME-3M melanoma, over 100 µM; in the assay on MDA-MB-231 breast it was over 100 µM; with OVCAR-3 ovarian it was 60.4 µM. The TGI in the assay with RPMI-8226 leukemia was over 100 µM; in the assay on SF-268 CNS, over 100 µM; in the assay with SK-MEL-2 melanoma, 0.0804 µM; in the assay on SNB-75 CNS it was over 100 µM.

Regarding `COc1ccc(-n2c(C)nc3c(c(C)nn3-c3ccccc3)c2=O)cc1`, the GI50 was 0.0654 µM with 786-0 renal; 0.12 µM in the assay with COLO 205 colon; 0.0356 µM with K-562 leukemia; 15.9 µM in the assay on MALME-3M melanoma; 0.311 µM in the assay on MDA-MB-231 breast; 0.0414 µM with OVCAR-3 ovarian. In addition, the GI50 was 0.108 µM in the assay with RPMI-8226 leukemia, 1.76 µM with SF-268 CNS, 0.516 µM with SK-MEL-2 melanoma and 0.0276 µM in the assay on SNB-75 CNS. In addition, the TGI was over 100 µM in the assay with 786-0 renal; 1.93 µM in the assay on COLO 205 colon; over 68.1 µM in the assay on K-562 leukemia; over 100 µM in the assay with MALME-3M melanoma; over 100 µM with MDA-MB-231 breast; over 33.6 µM in the assay with RPMI-8226 leukemia. Moreover, the TGI with SF-268 CNS, in the assay with SK-MEL-2 melanoma and in the assay on SNB-75 CNS was over 100 µM in each case.

As to `C[C@@H]1COC(Nc2ccc3ncnc(Nc4ccc(OCc5nccs5)c(Cl)c4)c3c2)=N1`, the GI50 in the assay with 786-0 renal was 8.31 µM and 7.15 µM; in the assay on COLO 205 colon, 3.79 µM and 4.86 µM; in the assay with K-562 leukemia, 4.05 µM and 4.08 µM; with MALME-3M melanoma it was > 10 µM and 4.49 µM; with MDA-MB-231 breast, 6.04 µM and 8.22 µM; with OVCAR-3 ovarian, 2.07 µM and 2.67 µM. Further, the GI50 was 3.29 µM and 2.56 µM with RPMI-8226 leukemia; 6.27 µM and 5.59 µM with SF-268 CNS; 4.43 µM and 3.47 µM in the assay with SK-MEL-2 melanoma; 8.88 µM and 6.83 µM with SNB-75 CNS. In addition, the TGI was > 10 µM and 27.9 µM with 786-0 renal; > 10 µM and 17.1 µM in the assay with COLO 205 colon; > 10 µM and 33.2 µM with K-562 leukemia; > 10 µM and 18.5 µM in the assay with MALME-3M melanoma; > 10 µM and 27.2 µM in the assay with MDA-MB-231 breast; > 10 µM and 14.2 µM with OVCAR-3 ovarian. The TGI in the assay with RPMI-8226 leukemia is > 10 µM and 11.1 µM; with SF-268 CNS, > 10 µM and 27.7 µM; in the assay on SK-MEL-2 melanoma it was > 10 µM and 11.1 µM; in the assay with SNB-75 CNS, > 10 µM and 21.4 µM.

Consider `COc1ccc2c(c1)C(=O)c1c-2n(CCCN2CCOCC2)c(=O)c2cc([N+](=O)[O-])ccc12`, for which the GI50 is under 0.01 µM in the assay with 786-0 renal; under 0.0111 µM in the assay with COLO 205 colon; under 0.01 µM with K-562 leukemia; under 0.0117 µM in the assay on MALME-3M melanoma; 0.661 µM in the assay on MDA-MB-231 breast; under 0.0113 µM with OVCAR-3 ovarian. Further, the GI50 is under 0.01 µM with RPMI-8226 leukemia, under 0.01 µM in the assay with SF-268 CNS, 0.0763 µM in the assay with SK-MEL-2 melanoma and under 0.01 µM in the assay with SNB-75 CNS. For the same compound, the TGI in the assay on COLO 205 colon is over 45.4 µM; with K-562 leukemia, over 37 µM; with MALME-3M melanoma, 0.779 µM; with MDA-MB-231 breast, 17.3 µM; with OVCAR-3 ovarian, 1.49 µM; in the assay on RPMI-8226 leukemia, 0.147 µM. The TGI is over 100 µM in the assay with SF-268 CNS and 3.95 µM with SK-MEL-2 melanoma.

These data come from PubChem BioAssay (NCI).
